Assay results published in ChEMBL document CHEMBL3228023, “Paradoxical effects of N-cyanoalkyl substituents upon the activities of several classes of opioids” (J Med Chem, 1979).
pEC50: −log10 of the molar value. Structures can show the parent of a compound that is named as a salt. Calls of active or inactive are those of the source. The rule behind the calls is not given here.

Columns and labels:
Mus musculus [1] = assay: Antinociceptive activity in sc dosed mouse by Nilsen assay; format: functional
Opioid receptor = Opioid receptor (Rattus norvegicus, UniProt P33533+P34975+P33535); assay: Binding affinity to opiate receptor in rat brain homogenates; format: tissue-based
Mus musculus [2] = assay: Antinociceptive activity in sc dosed mouse by Eddy-hot plate assay; format: functional
[3] = Binding affinity to opiate receptor in mouse/rat NG108-15 hybrid cells
Mus musculus [4] = assay: Antinociceptive activity in Swiss-webster mouse at 1.6 umol/kg, sc by tail-flick assay; format: functional
Mus musculus [5] = assay: Ratio of morphine ED50 to compound ED50 for antinociceptive activity in sc dosed mouse by Eddy-hot plate assay; format: functional
[6] = Acute toxicity in sc dosed mouse; format: organism-based; conditions: in vivo
Mus musculus [7] = assay: Antinociceptive activity in Swiss-webster mouse at 1.6 umol/kg, sc by tail-flick assay in presence of 0.08 to 8.5 umol/kg naloxone; format: functional, organism-based
Mus musculus [8] = assay: Antinociceptive activity in sc dosed mouse by Eddy-hot plate assay in presence of naloxone; format: functional, organism-based
Rhesus monkey [9] = assay: Acute toxicity in rhesus monkey assessed as salivation at 0.25 to 2 mg/kg by single-dose suppression test; format: organism-based, Macaca mulatta; design: dose 0.25-2 mg/kg; conditions: in vivo
Rhesus monkey [10] = assay: Acute toxicity in rhesus monkey assessed as head tremors, covulsiona, ataxia at 2 mg/kg by single-dose suppression test; format: organism-based, Macaca mulatta; design: dose 2 mg/kg; conditions: in vivo
Rhesus monkey [11] = assay: Acute toxicity in rhesus monkey assessed as CNS depression at 0.625 to 5 mg/kg by single-dose suppression test; format: organism-based, Macaca mulatta, Central nervous system; design: dose 0.625-5 mg/kg; conditions: in vivo
Rhesus monkey [12] = assay: Acute toxicity in rhesus monkey assessed as CNS depression at 0.625 to 5 mg/kg by single-dose suppression test in presence of naloxone; format: organism-based, Macaca mulatta, Central nervous system; design: dose 0.625-5 mg/kg; conditions: in vivo
Rhesus monkey [13] = assay: Narcotic antagonist activity in rhesus monkey at 1 to 2 mg/kg by precipitated withdrawal test; format: organism-based, Macaca mulatta; design: dose 1-2 mg/kg; conditions: in vivo
Rhesus monkey [14] = assay: Acute toxicity in rhesus monkey assessed as ataxia and mild stupor at 1 to 2 mg/kg by single-dose suppression test; format: organism-based, Macaca mulatta; design: dose 1-2 mg/kg; conditions: in vivo
Mus musculus [15] = assay: Ratio of morphine ED50 to compound ED50 for antinociceptive activity in sc dosed mouse by Nilsen assay; format: functional
Rhesus monkey [16] = assay: Acute toxicity in rhesus monkey assessed as minimal CNS depression at 1.5 to 12 mg/kg by single-dose suppression test; format: organism-based, Macaca mulatta, Central nervous system; design: dose 1.5-12 mg/kg; conditions: in vivo
Mus musculus [17] = assay: Antinociceptive activity in mouse at 100 mg/kg, sc by Eddy-hot plate assay; format: functional, organism-based; design: dose 100 mg/kg
Rhesus monkey [18] = assay: Acute toxicity in rhesus monkey assessed as ataxia at 0.32 to 2.56 mg/kg by single-dose suppression test; format: organism-based, Macaca mulatta; design: dose 0.32-2.56 mg/kg; conditions: in vivo
Rhesus monkey [19] = assay: Physical dependence capacity in rhesus monkey at 0.16 to 2.56 mg/kg by single-dose suppression test; format: ADME, organism-based, Macaca mulatta; design: dose 0.16-2.56 mg/kg; conditions: in vivo
Rhesus monkey [20] = assay: Narcotic antagonist activity in rhesus monkey at 0.32 to 1.28 mg/kg by precipitated withdrawal test; format: organism-based, Macaca mulatta; design: dose 0.32-1.28 mg/kg; conditions: in vivo
[21] = Therapeutic ratio of LD50 for sc dosed mouse to ED50 for antinociceptive activity in sc dosed mouse by Eddy-hot plate assay; conditions: in vivo
Rhesus monkey [22] = assay: Acute toxicity in rhesus monkey assessed as tremors at 0.64 to 2.56 mg/kg by single-dose suppression test; format: organism-based, Macaca mulatta; design: dose 0.64-2.56 mg/kg; conditions: in vivo
Rhesus monkey [23] = assay: Acute toxicity in rhesus monkey assessed as rigidity at 2.56 mg/kg by single-dose suppression test; format: organism-based, Macaca mulatta; design: dose 2.56 mg/kg; conditions: in vivo
Rhesus monkey [24] = assay: Acute toxicity in rhesus monkey assessed as exacerbation of withdrawal at 0.005 to 0.04 mg/kg by single-dose suppression test; format: organism-based, Macaca mulatta; design: dose 0.005-0.04 mg/kg; conditions: in vivo
Rhesus monkey [25] = assay: Acute toxicity in rhesus monkey assessed as salivation at 0.005 to 0.02 mg/kg by single-dose suppression test; format: organism-based, Macaca mulatta; design: dose 0.005-0.02 mg/kg; conditions: in vivo
Rhesus monkey [26] = assay: Acute toxicity in rhesus monkey assessed as minimal CNS depression at 1.5 to 36 mg/kg by single-dose suppression test; format: organism-based, Macaca mulatta, Central nervous system; design: dose 1.5-36 mg/kg; conditions: in vivo
Rhesus monkey [27] = assay: Acute toxicity in rhesus monkey assessed as tremors at 36 mg/kg by single-dose suppression test; format: organism-based, Macaca mulatta; design: dose 36 mg/kg; conditions: in vivo
Rhesus monkey [28] = assay: Narcotic antagonist activity in rhesus monkey […]; format: organism-based, Macaca mulatta; conditions: in vivo
Rhesus monkey [29] = assay: Acute toxicity in rhesus monkey assessed as withdrawal signs at 24 to 96 mg/kg by precipitated withdrawal test; format: organism-based, Macaca mulatta; design: dose 24-96 mg/kg; conditions: in vivo
Rhesus monkey [30] = assay: Acute toxicity in rhesus monkey assessed as withdrawal signs at 96 mg/kg by single-dose suppression test; format: organism-based, Macaca mulatta; design: dose 96 mg/kg; conditions: in vivo
Rhesus monkey [31] = assay: Acute toxicity in rhesus monkey at 10 to 40 mg/kg by single-dose suppression test; format: organism-based, Macaca mulatta; design: dose 10-40 mg/kg; conditions: in vivo
Mus musculus [32] = assay: Antinociceptive activity in mouse at 100 mg/kg, sc by Nilsen assay; format: functional, organism-based; design: dose 100 mg/kg
Mus musculus [33] = species on record: Mus musculus
Rhesus monkey [34] = assay: Physical dependence capacity in rhesus monkey at 12 mg/kg by single-dose suppression test; format: ADME, organism-based, Macaca mulatta; design: dose 12 mg/kg; conditions: in vivo
Rhesus monkey [35] = assay: Acute toxicity in rhesus monkey at 3 to 12 mg/kg by single-dose suppression test; format: organism-based, Macaca mulatta; design: dose 3-12 mg/kg; conditions: in vivo
[36] = Mus musculus, sc, read-out: ED50

CN1CC[C@]23CCCC[C@H]2[C@H]1Cc1ccc(O)cc13.O=C(O)C(O)C(O)C(=O)O
ED50 (Mus musculus [1]; [36]): 0.54 µmol/kg | EC50 (Opioid receptor): 700 nM | ED50 (Mus musculus [2]; [36]): 0.49 µmol/kg | pEC50 [3]: 6.70

CN1CC[C@]23c4c5ccc(O)c4O[C@H]2[C@@H](O)C=C[C@H]3[C@H]1C5
ED50 (Mus musculus [1]; [36]): 4.1 µmol/kg | ED50 (Mus musculus [2]; [36]): 3.3 µmol/kg | pEC50 [3]: 5.82

Cl.N#CCCN1CC[C@]23CCCCC2C1Cc1ccc(O)cc13.O (stereo partly specified)
Activity (Mus musculus [4]): 100% | Ratio ED50 (Mus musculus [5]): 50 | LD50 [6]: 534 mg/kg

N#CCCN1CC[C@]23CCCCC2C1Cc1ccc(O)cc13 (stereo partly specified)
Activity (Mus musculus [7]): inactive | Activity (Mus musculus [8]): inactive

C[C@H]1C2Cc3ccc(O)cc3C1(C)CCN2CCC#N (mixture of isomers)
ED50 (Mus musculus [1]): 0.31 µmol/kg | Activity (Rhesus monkey [9]): Toxic | Activity (Rhesus monkey [10]): Toxic | EC50 (Opioid receptor): 3000 nM | ED50 (Mus musculus [2]): 0.26 µmol/kg

C[C@H]1C2Cc3ccc(O)cc3C1(C)CCN2CC#N (mixture of isomers)
Activity (Rhesus monkey [11]): Toxic | ED50 (Mus musculus [1]; [36]): 39.1 µmol/kg | EC50 (Opioid receptor): 20000 nM | ED50 (Mus musculus [2]; [36]): 22.2 µmol/kg | Activity (Rhesus monkey [12]): Toxic

C[C@H]1C2Cc3ccc(O)cc3C1(C)CCN2CCCC#N (mixture of isomers)
ED50 (Mus musculus [1]; [36]): 1.5 µmol/kg | Activity (Rhesus monkey [13]): Toxic | EC50 (Opioid receptor): 4000 nM | ED50 (Mus musculus [2]; [36]): 2.4 µmol/kg | Activity (Rhesus monkey [14]): Toxic

Br.C[C@H]1C2Cc3ccc(O)cc3C1(C)CCN2CCC#N (mixture of isomers)
Ratio ED50 (Mus musculus [5]): 12 | Ratio ED50 (Mus musculus [15]): 12

C[C@H]1C2Cc3ccc(O)cc3C1(C)CCN2CCC#N (single isomer, unassigned; (+)) [listing 1 of 2 here]
Activity (Rhesus monkey [16]): Toxic

C[C@H]1C2Cc3ccc(O)cc3C1(C)CCN2CCC#N (single isomer, unassigned; (+)) [listing 2 of 2 here]
Activity (Mus musculus [17]): inactive

N#CCCN1CC[C@]23CCCCC2C1Cc1ccc(O)cc13 (single isomer, unassigned; (+))
Activity (Mus musculus [17]): inactive

C[C@H]1C2Cc3ccc(O)cc3C1(C)CCN2CCC#N (single isomer, unassigned; (-))
Activity (Rhesus monkey [18]): Toxic | Activity (Rhesus monkey [19]): Non-toxic | ED50 (Mus musculus [1]): 0.03 µmol/kg | Activity (Rhesus monkey [20]): Toxic | selectivity ratio [21]: 13000 | EC50 (Opioid receptor): 3000 nM | Activity (Rhesus monkey [22]): Toxic | ED50 (Mus musculus [2]): 0.11 µmol/kg | pEC50 [3]: 7.10 | Activity (Rhesus monkey [23]): Toxic

Br.C[C@H]1C2Cc3ccc(O)cc3C1(C)CCN2CCC#N (single isomer, unassigned; (-))
LD50 [6]: 489 mg/kg

N#CCCN1CC[C@]23CCCCC2C1Cc1ccc(O)cc13 (single isomer, unassigned; (-))
Activity (Rhesus monkey [24]): Toxic | ED50 (Mus musculus [1]; [36]): 0.14 µmol/kg | selectivity ratio [21]: 23000 | EC50 (Opioid receptor): 1500 nM | ED50 (Mus musculus [2]; [36]): 0.07 µmol/kg | Activity (Rhesus monkey [25]): Toxic | pEC50 [3]: 7.82

N#CCN1CC[C@]23CCCCC2C1Cc1ccc(O)cc13 (single isomer, unassigned; (-))
ED50 (Mus musculus [1]; [36]): 13.2 µmol/kg | EC50 (Opioid receptor): 7000 nM | ED50 (Mus musculus [2]; [36]): 5.3 µmol/kg

N#CCCN1CC[C@]23c4c5ccc(O)c4O[C@H]2[C@@H](O)C=CC3C1C5 (single isomer, unassigned; (-))
Activity (Rhesus monkey [26]): Toxic | ED50 (Mus musculus [1]; [36]): 33 µmol/kg | Activity (Rhesus monkey [27]): Toxic | EC50 (Opioid receptor): 20000 nM | ED50 (Mus musculus [2]; [36]): 8.3 µmol/kg | Activity (Rhesus monkey [28]): Toxic | pEC50 [3]: 6.00

COc1ccc2c3c1O[C@H]1[C@@H](O)C=CC4C(C2)N(CCC#N)CC[C@@]341 (single isomer, unassigned; (-))
Activity (Rhesus monkey [29]): Toxic | EC50 (Opioid receptor): 700000 nM | Activity (Rhesus monkey [30]): Toxic

COc1ccc2c3c1O[C@H]1C(=O)CC[C@@]4(O)C(C2)N(CCC#N)CC[C@]314 (single isomer, unassigned; (-))
Activity (Rhesus monkey [31]): Non-toxic | Activity (Mus musculus [32]): inactive | ED50 (Mus musculus [33]): inactive | EC50 (Opioid receptor): 60000 nM

Br.CC1C2Cc3ccc(O)cc3C1(C)CCN2C (single isomer, unassigned; (-))
ED50 (Mus musculus [1]; [36]): 1.5 µmol/kg | EC50 (Opioid receptor): 4000 nM | ED50 (Mus musculus [2]; [36]): 2 µmol/kg | pEC50 [3]: 6.40

COc1ccc2c3c1O[C@H]1[C@@H](O)C=C[C@H]4[C@@H](C2)N(C)CC[C@@]341.COc1ccc2c3c1O[C@H]1[C@@H](O)C=C[C@H]4[C@@H](C2)N(C)CC[C@@]341.O.O=P(O)(O)O.O=P(O)(O)O [CODEINE PHOSPHATE]
Activity (Rhesus monkey [34]): Toxic | ED50 (Mus musculus [1]; [36]): 20.4 µmol/kg | ED50 (Mus musculus [2]; [36]): 14.6 µmol/kg | Activity (Rhesus monkey [35]): Toxic

CN1CC[C@]23c4c5ccc(O)c4O[C@H]2C(=O)CC[C@@]3(O)[C@H]1C5 [OXYMORPHONE HYDROCHLORIDE]
ED50 (Mus musculus [2]; [36]): 0.27 µmol/kg
